# Source: patent publication US20170334899A1, “AMINO-SUBSTITUTED ISOTHIAZOLES” (Bayer Pharma Aktiengesellschaft, priority 2014, published 2017)
# Columns and labels:
# [1] = molecular target: T1, catalytic domain of human Bub1 (amino acids 704-1085) (Homo sapiens, UniProt O43683); test: Bub1 kinase assay (TR-FRET); type: biochemical; conditions: 10 μM ATP, avg, read-out: Bub1 avg (IC50 [mol/l])
# T1 construct: catalytic domain of human Bub1 (amino acids 704-1085); His6 (N); made in house; host or cells: insect cells (Hi5)
# T1 sequence (O43683 704-1085): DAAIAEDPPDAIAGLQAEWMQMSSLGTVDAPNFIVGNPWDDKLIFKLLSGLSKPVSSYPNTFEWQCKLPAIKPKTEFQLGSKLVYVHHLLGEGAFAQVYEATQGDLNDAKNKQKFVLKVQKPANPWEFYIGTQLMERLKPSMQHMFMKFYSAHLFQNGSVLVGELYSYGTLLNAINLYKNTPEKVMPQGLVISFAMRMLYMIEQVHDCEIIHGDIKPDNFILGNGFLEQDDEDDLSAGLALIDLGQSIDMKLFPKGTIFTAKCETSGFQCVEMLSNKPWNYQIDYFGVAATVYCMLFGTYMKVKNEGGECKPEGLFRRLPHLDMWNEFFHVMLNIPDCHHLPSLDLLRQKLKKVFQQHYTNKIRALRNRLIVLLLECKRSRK
# From the text: Bub1-inhibitory activity of compounds of the present invention was quantified employing the Bub1 TR-FRET assay as described in the following paragraphs.
# N-terminally His6-tagged recombinant catalytic domain of human Bub1 (amino acids 704-1085), expressed in insect cells (Hi5) and purified by Ni-NTA affinity chromatography and subsequent size exclusion chromatography, was used as enzyme. As substrate for the kinase reaction the biotinylated peptide biotin-Ahx-VLLPKKSFAEPG (C-terminus in amid form) was used which can be purchased e.g. form the company Biosyntan (Berlin, Germany).
# For the assay 50 nl of a 100fold concentrated solution of the test compound in DMSO was pipetted into a black low volume 384well microtiter plate (Greiner Bio-One, Frickenhausen, Germany), 2 μl of a solution of Bub1 in aqueous assay buffer [50 mM Tris/HCl pH 7.5, 10 mM magnesium chloride (MgCl2), 200 mM potassium chloride (KCl), 1.0 mM dithiothreitol (DTT), 0.1 mM sodium ortho-vanadate, 1% (v/v) glycerol, 0.01% (w/v) bovine serum albumine (BSA), 0.005% (v/v) Trition X-100 (Sigma), 1× Complete EDTA-free protease inhibitor mixture (Roche)] were added and the mixture was incubated for 15 min at 22° C. to allow pre-binding of the test compounds to the enzyme before the start of the kinase reaction. Then the kinase reaction was started by the addition of 3 μl of a solution of adenosine-tri-phosphate (ATP, 16.7 μM=>final conc. in the 5 μl assay volume is 10 μM) and substrate (1.67 μM=>final conc. in the 5 μl assay volume is 1 μM) in assay buffer and the resulting mixture was incubated for a reaction time of 60 min at 22° C. The concentration of Bub1 was adjusted depending of the activity of the enzyme lot and was chosen appropriate to have the assay in the linear range, typical concentrations were in the range of 200 ng/ml. The reaction was stopped by the addition of 5 μl of a solution of TR-FRET detection reagents (0.2 μM streptavidine-XL665 [Cisbio Bioassays, Codolet, France] and 1 nM anti-phosho-Serine antibody [Merck Millipore, cat. #35-001] and 0.4 nM LANCE EU-W1024 labeled anti-mouse IgG antibody [Perkin-Elmer, product no. AD0077, as an alternative a Terbium-cryptate-labeled anti-mouse IgG antibody from Cisbio Bioassays can be used]) in an aqueous EDTA-solution (50 mM EDTA, 0.2% (w/v) bovine serum albumin in 100 mM HEPES pH 7.5).
# The resulting mixture was incubated 1 h at 22° C. to allow the formation of complex between the phosphorylated biotinylated peptide and the detection reagents. Subsequently the amount of phosphorylated substrate was evaluated by measurement of the resonance energy transfer from the Eu-chelate to the streptavidine-XL. Therefore, the fluorescence emissions at 620 nm and 665 nm after excitation at 350 nm was measured in a TR-FRET reader, e.g. a Rubystar or Pherastar (both from BMG Labtechnologies, Offenburg, Germany) or a Viewlux (Perkin-Elmer). The ratio of the emissions at 665 nm and at […] was taken as the measure for the amount of phosphorylated substrate. The data were normalised (enzyme reaction without inhibitor=0% inhibition, all other assay components but no enzyme=100% inhibition).
# [2] = test system: human cervical tumor cell line HeLa (ATCC CCL-2); test: SAC-Formation - Paclitaxel-Induced Assay; type: cell-based; conditions: Homo sapiens, HeLa, 24 h, HeLa cells, paclitaxel 0.05 μM, test range 0.005 μM-20 μM, read-out: IC50 [mol/l] SAC-Formation - Paclitaxel-Induced Assay
# Procedure, shortened: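 Read-out is high-content imaging of anti-phospho-H3 Ser10 (mitosis) and Hoechst 33342 (DNA, cell number), with decreased mitotic fraction marking checkpoint breakthrough. Compounds (0.005–20 μM) and 0.05 μM paclitaxel co-added to overnight-plated HeLa for 24 h at 37° C; four-parameter Hill fit.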
compound,measurement,setting,value
"Cc1nsc(Nc2cnc3ccccc3n2)c1C(=O)Nc1cccc(-c2nnc(C(C)(C)C)o2)c1 [Example 107, N-[3-(5-tert-Butyl-1,3,4-oxadiazol-2-yl)phenyl]-3-methyl-5-(quinoxalin-2-ylamino)-1,2-thiazole-4-carboxamide]",IC50,[1],≥ 20000 nM
same,IC50,[2],210 nM
"Cc1nsc(Nc2cnc3ccccc3n2)c1C(=O)Nc1cccc(-c2nc(C(C)(C)C)no2)c1 [Example 108, N-[3-(3-tert-Butyl-1,2,4-oxadiazol-5-yl)phenyl]-3-methyl-5-(quinoxalin-2-ylamino)-1,2-thiazole-4-carboxamide]",IC50,[1],≥ 20000 nM
same,IC50,[2],53 nM
"Cc1nsc(Nc2cnc(C(F)(F)F)cn2)c1C(=O)Nc1ccc(OCC2CCN(C(=O)OC(C)(C)C)C2)nc1 (stereo not shown) [Example 109, tert-Butyl 3-{[(5-{[(3-methyl-5-{[5-(trifluoromethyl)pyrazin-2-yl]amino}-1,2-thiazol-4-yl)carbonyl]amino}pyridin-2-yl)oxy]methyl}pyrrolidine-1-carboxylate]",IC50,[1],≥ 20000 nM
same,IC50,[2],37 nM
"Cc1nsc(Nc2cncc(C(F)(F)F)n2)c1C(=O)Nc1ccc(OCC2CCN(C(=O)OC(C)(C)C)C2)nc1 (stereo not shown) [Example 110, tert-Butyl 3-{[(5-{[(3-methyl-5-{[6-(trifluoromethyl)pyrazin-2-yl]amino}-1,2-thiazol-4-yl)carbonyl]amino}pyridin-2-yl)oxy]methyl}pyrrolidine-1-carboxylate]",IC50,[1],≥ 20000 nM
same,IC50,[2],150 nM
"CNS(=O)(=O)c1ccc(NC(=O)c2c(C)nsc2Nc2cnc3ccccc3n2)cc1 [Example 111, 3-Methyl-N-[4-(methylsulfannoyl)phenyl]-5-(quinoxalin-2-ylamino)-1,2-thiazole-4-carboxamide]",IC50,[1],≥ 20000 nM
same,IC50,[2],130 nM
"CC(=O)N(C)CCOc1ccc(NC(=O)c2c(C)nsc2Nc2nc3c(C(F)(F)F)cccc3s2)cn1 [Example 112, N-(6-{2-[Acetyl(methyl)amino]-ethoxy}pyridin-3-yl)-3-methyl-5-{[4-(trifluoromethyl)-1,3-benzothiazol-2-yl]amino}-1,2-thiazole-4-carboxamide]",IC50,[1],≥ 20000 nM
same,IC50,[2],800 nM
"Cc1nsc(Nc2cnc3ccccc3n2)c1C(=O)Nc1cccc(C(=O)N2CCCC2)c1 [Example 113, 3-Methyl-N-[3-(pyrrolidin-1-ylcarbonyl)phenyl]-5-(quinoxalin-2-ylamino)-1,2-thiazole-4-carboxamide]",IC50,[1],18000 nM
same,IC50,[2],1700 nM
"Cc1nsc(Nc2cc(C#N)ccn2)c1C(=O)Nc1cccc(C(=O)N2CCCC2)c1 [Example 114, 5-[(4-Cyanopyridin-2-yl)amino]-3-methyl-N-[3-(pyrrolidin-1-ylcarbonyl)phenyl]-1,2-thiazole-4-carboxamide]",IC50,[1],≥ 20000 nM
same,IC50,[2],1300 nM
"Cc1nsc(Nc2cnc3ccccc3n2)c1C(=O)Nc1ccc(S(C)(=O)=O)cc1 [Example 115, 3-Methyl-N-[4-(methylsulfonyl)phenyl]-5-(quinoxalin-2-ylamino)-1,2-thiazole-4-carboxamide]",IC50,[1],8900 nM
same,IC50,[2],3700 nM
"CCNS(=O)(=O)c1ccc(NC(=O)c2c(C)nsc2Nc2cnc3ccccc3n2)cc1 [Example 116, N-[4-(Ethylsulfamoyl)phenyl]-3-methyl-5-(quinoxalin-2-ylamino)-1,2-thiazole-4-carboxamide]",IC50,[1],≥ 20000 nM
same,IC50,[2],1500 nM
"Cc1nsc(Nc2cnc3ccccc3n2)c1C(=O)Nc1ccc(Oc2cccc(C(F)(F)F)c2)nc1 [Example 117, 3-Methyl-5-(quinoxalin-2-ylamino)-N-{6-[3-(trifluoromethyl)phenoxy]pyridin-3-yl}-1,2-thiazole-4-carboxamide]",IC50,[1],≥ 20000 nM
same,IC50,[2],1500 nM
"Cc1nsc(Nc2ccc(C#N)cn2)c1C(=O)Nc1ccc(Oc2cccc(C(F)(F)F)c2)nc1 [Example 118, 5-[(5-Cyanopyridin-2-yl)amino]-3-methyl-N-{6-[3-(trifluoromethyl)phenoxy]pyridin-3-yl}-1,2-thiazole-4-carboxamide]",IC50,[1],≥ 20000 nM
same,IC50,[2],53 nM
"Cc1nsc(Nc2cc(C#N)ccn2)c1C(=O)Nc1ccc(Oc2cccnc2)nc1 [Example 119, 5-[(4-Cyanopyridin-2-yl)amino]-3-methyl-N-[6-(pyridin-3-yloxy)pyridin-3-yl]-1,2-thiazole-4-carboxamide]",IC50,[1],≥ 20000 nM
same,IC50,[2],20000 nM
"Cc1nsc(Nc2cnc(C(F)(F)F)cn2)c1C(=O)Nc1ccc(OCC2CCN(CCF)C2)nc1 (stereo not shown) [Example 121, N-(6-{[1-(2-fluoroethyl)pyrrolidin-3-yl]methoxy}pyridin-3-yl)-3-methyl-5-{[5-(trifluoromethyl)pyrazin-2-yl]amino}-1,2-thiazole-4-carboxamide]",IC50,[1],≥ 20000 nM
same,IC50,[2],43 nM
"Cc1nsc(Nc2cnc(C(F)(F)F)cn2)c1C(=O)Nc1ccc(OCC2CCN(CC(F)F)C2)nc1 (stereo not shown) [Example 122, N-(6-{[1-(2,2-difluoroethyl)pyrrolidin-3-yl]methoxy}pyridin-3-yl)-3-methyl-5-{[5-(trifluoromethyl)pyrazin-2-yl]amino}-1,2-thiazole-4-carboxamide]",IC50,[1],≥ 20000 nM
same,IC50,[2],30 nM
"Cc1nsc(Nc2cnc(C(F)(F)F)cn2)c1C(=O)Nc1ccc(OCC2CCN(CC(F)(F)F)C2)nc1 (stereo not shown) [Example 123, 3-Methyl-N-(6-{[1-(2,2,2-trifluoroethyl)pyrrolidin-3-yl]methoxy}pyridin-3-yl)-5-{[5-(trifluoromethyl)pyrazin-2-yl]amino}-1,2-thiazole-4-carboxamide]",IC50,[1],≥ 20000 nM
same,IC50,[2],24 nM
"Cc1nsc(Nc2cnc(C(F)(F)F)cn2)c1C(=O)Nc1ccc(OCC2CCN(CCC(F)(F)F)C2)nc1 (stereo not shown) [Example 124, 3-methyl-5-{[5-(trifluoromethyl)pyrazin-2-yl]amino}-N-(6-{[1-(3,3,3-trifluoropropyl)pyrrolidin-3-yl]methoxy}pyridin-3-yl)-1,2-thiazole-4-carboxamide]",IC50,[1],≥ 20000 nM
same,IC50,[2],38 nM
"Cc1nsc(Nc2cnc(C(F)(F)F)cn2)c1C(=O)Nc1ccc(OC[C@@H]2CCN(CC(F)F)C2)nc1 [Example 127, N-(6-{[(3R)-1-(2,2-difluoroethyl)pyrrolidin-3-yl]methoxy}pyridin-3-yl)-3-methyl-5-{[5-(trifluoromethyl)pyrazin-2-yl]amino}-1,2-thiazole-4-carboxamide]",IC50,[1],≥ 20000 nM
same,IC50,[2],83 nM
"Cc1nsc(Nc2cnc(C(F)(F)F)cn2)c1C(=O)Nc1ccc(OC[C@@H]2CCN(CC(F)(F)F)C2)nc1 [Example 128, 3-Methyl-N-(6-{[(3R)-1-(2,2,2-trifluoroethyl)pyrrolidin-3-yl]methoxy}pyridin-3-yl)-5-{[5-(trifluoromethyl)pyrazin-2-yl]amino}-1,2-thiazole-4-carboxamide]",IC50,[1],> 20000 nM
same,IC50,[2],70 nM
"Cc1nsc(Nc2cnc(C(F)(F)F)cn2)c1C(=O)Nc1ccc(OC[C@@H]2CCN(CCC(F)(F)F)C2)nc1 [Example 129, 3-Methyl-5-{[5-(trifluoromethyl)pyrazin-2-yl]amino}-N-(6-{[(3R)-1-(3,3,3-trifluoropropyl)pyrrolidin-3-yl]methoxy}pyridin-3-yl)-1,2-thiazole-4-carboxamide]",IC50,[1],> 20000 nM
same,IC50,[2],84 nM
